Source: article PMC9609824 (Molecules, 2022)
Read-outs that look alike come from different tables or passages of the source. Blank lines part the entries; values can stand above or below the molecule they belong to.

Experiments:
CYP2C9 and CYP2C19 = conditions: metabolized by CYP2C9 and CYP2C19; cited from earlier work
[1] = freeze–thaw stability (−80 °C, thawed at room temperature three times), High QC 1250
[2] = freeze–thaw stability (−80 °C, thawed at room temperature three times), Low QC 75
[3] = short-term stability T0 (room temperature, immediately after preparation), High QC 1250
[4] = short-term stability T0 (room temperature, immediately after preparation), Low QC 75
[5] = short-term stability T4 (freezer −80 °C, 4 h), High QC 1250
[6] = short-term stability T4 (freezer −80 °C, 4 h), Low QC 75
[7] = short-term stability T24 (freezer −80 °C, 24 h), High QC 1250
[8] = short-term stability T24 (freezer −80 °C, 24 h), Low QC 75

SMILES: Cc1cnc(C(=O)NCCc2ccc(S(=O)(=O)NC(=O)N[C@H]3CCC[C@@H](O)C3)cc2)cn1 (relative stereo) [3-cis-hydroxyglipizide]
Share of glipizide metabolized to the inactive metabolite (CYP2C9 and CYP2C19): 15%

Accuracy (% Error) (autosampler 24 h, High QC 1250): −1.32%
Mean ± SD Measurable Conc. (autosampler 24 h, High QC 1250): 1233.47 ± 71.06 ng/mL
Accuracy (% Error) (autosampler 24 h, Low QC 75): 1.83%
Mean ± SD Measurable Conc. (autosampler 24 h, Low QC 75): 76.37 ± 2.27 ng/mL
Accuracy (% Error) [1]: −1.59%
Mean ± SD Measurable Conc. [1]: 1230.17 ± 112.55 ng/mL
Accuracy (% Error) [2]: 4.86%
Mean ± SD Measurable Conc. [2]: 78.65 ± 4.84 ng/mL
Accuracy (% Error) [3]: −0.82%
Mean ± SD Measurable Conc. [3]: 1239.79 ± 68.22 ng/mL
Accuracy (% Error) [4]: 8.13%
Mean ± SD Measurable Conc. [4]: 81.10 ± 2.06 ng/mL
Accuracy (% Error) [5]: 2.82%
Mean ± SD Measurable Conc. [5]: 1285.25 ± 10.84 ng/mL
Accuracy (% Error) [6]: −6.68%
Mean ± SD Measurable Conc. [6]: 69.99 ± 1.61 ng/mL
Accuracy (% Error) [7]: 4.93%
Mean ± SD Measurable Conc. [7]: 1311.63 ± 30.52 ng/mL
Accuracy (% Error) [8]: −6.27%
Mean ± SD Measurable Conc. [8]: 70.30 ± 2.90 ng/mL
SMILES: Cc1cnc(C(=O)NCCc2ccc(S(=O)(=O)NC(=O)NC3CCCCC3)cc2)cn1 [GLZ, glipizide]

SMILES: Cc1cnc(C(=O)NCCc2ccc(S(=O)(=O)NC(=O)N[C@H]3CC[C@H](O)CC3)cc2)cn1 [4-trans-hydroxyglipizide]
Share of glipizide metabolized to the inactive metabolite (CYP2C9 and CYP2C19): 71%
